From US6224849A, “Alkylaminobenzothiazole and-benzoxazole derivatives” (Janssen Pharmaceutica N.V., priority 1996, dated 2001)

Biological target: T1, cloned human D4 receptors (Homo sapiens, UniProt P21917)
T1 construct: purchased Receptor Biology, Maryland, USA; host or cells: transfected Chinese Hamster Ovary (CHO) cells (membrane preparation)
T1 sequence (P21917 1-419): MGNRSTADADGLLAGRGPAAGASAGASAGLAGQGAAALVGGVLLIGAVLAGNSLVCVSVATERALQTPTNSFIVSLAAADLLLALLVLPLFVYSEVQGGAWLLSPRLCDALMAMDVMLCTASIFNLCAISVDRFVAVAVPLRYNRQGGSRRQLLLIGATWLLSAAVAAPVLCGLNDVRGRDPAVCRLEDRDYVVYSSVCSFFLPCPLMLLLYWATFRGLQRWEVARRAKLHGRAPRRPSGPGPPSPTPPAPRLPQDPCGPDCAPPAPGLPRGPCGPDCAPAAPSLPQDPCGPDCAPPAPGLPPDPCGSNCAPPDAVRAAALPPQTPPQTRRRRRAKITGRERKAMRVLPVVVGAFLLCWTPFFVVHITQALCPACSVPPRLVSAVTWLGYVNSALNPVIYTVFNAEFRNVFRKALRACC
Assay: In vitro radioligand binding affinity for dopamine D4 receptor (3H-spiperone competition, transfected CHO cell membranes)
Conditions: membranes of transfected CHO cells expressing cloned human D4 receptors, read-out: pIC50 (-log IC50), dopamine D4 receptor (converted)
Experimental: In vitro binding affinity for dopamine D4 receptor
The interaction of the compounds of formula (I) with the dopamine D4 receptors was assessed in in vitro radioligand binding experiments.
A low concentration of ^3 H-spiperone with a high binding affinity for the dopamine D4 receptor was incubated with a sample of a membrane preparation of transfected Chinese Hamster Ovary (CHO) cells which express cloned human D4 receptors (Receptor Biology, Maryland, USA) in a buffered medium. When equilibrium of binding was reached, the receptor bound radioactivity was separated from the non-bound radioactivity, and the receptor bound activity was counted. The interaction of the test compounds, added to the incubation mixture in various concentrations, with the dopamine D4 receptor was assessed in competition binding experiments as described by Schotte et al. (Psychopharmacology, 1996, 124, 57-73).

For COc1ccc(N2CCN(CCNc3nc4ccccc4s3)CC2)cc1OC [Compound 23], the IC50 was at most 100 nM.

Fc1ccc(N2CCN(CCCNc3nc4ccccc4s3)CC2)cc1 [Compound 25] showed an IC50 of at most 100 nM.

CN(CCCN1CCN(c2ccc(Cl)c(Cl)c2)CC1)c1nc2ccccc2s1 [Compound 100] was tested, and the IC50 was at most 100 nM.

For CN(CCN1CCN(c2ccc(Cl)c(Cl)c2)CC1)c1nc2ccccc2s1 [Compound 101], the IC50 was at most 100 nM.

Compound Clc1ccc(N2CCN(CCNc3nc4ccccc4s3)CC2)cc1 [Compound 134] has an IC50 of at most 100 nM.

COc1ccc(N2CCN(CCNc3nc4ccccc4s3)CC2)cc1 [Compound 21] showed an IC50 of at most 100 nM.

c1ccc(N2CCN(CCNc3nc4ccccc4s3)CC2)cc1 [Compound 6, N-[2-(4-phenyl-1-piperazinyl)ethyl]-2-benzothiazolamine] showed an IC50 of at most 100 nM.

In the case of c1ccc2c(N3CCN(CCNc4nc5ccccc5s4)CC3)cccc2c1 [Compound 119], the IC50 is reported as at most 100 nM.

With Clc1ccc(N2CCN(CCN(Cc3ccccc3)c3nc4ccccc4s3)CC2)cc1Cl [Compound 106] the IC50 was at most 100 nM.
